The record followed here is PMC10140954, “Thiolactones and Δ^8,9-Pregnene Steroids from the Marine-Derived Fungus Meira sp. 1210CH-42 and Their α-Glucosidase Inhibitory Activity” (Marine Drugs, 2023).

In the test the target is α-glucosidase. The test is described as follows: α-glucosidase inhibition assay (pNPG substrate, absorbance at 405 nm). To be noted: for IC50: 0.1 M PBS pH 7.4, 37 °C, α-glucosidase 0.2 U/mL, 5 mM pNPG, triplicate, read-out: α-Glucosidase inhibitory activity, IC50 (50% inhibitory concentration). Type of test: biochemical. As for the experimental part: All the assays were carried out under 0.1 M PBS buffer (pH 7.4, Sigma). The samples (10 mM) were dissolved with DMSO (Sigma) and diluted into gradient concentrations with PBS buffer. The pre-reaction mixture consisted of the 130 μL sample with 30 μL α-glucosidase solution (0.2 U/mL, Sigma) and shaken well, then added to a 96-well plate and placed at 37 °C for 10 min in an incubator. Subsequently, 40 μL of 5 mM p-nitrophenyl-α-D-glucopyranoside (pNPG, TCI) was added and further incubated at 37 °C for 20 min. Finally, the α-glucosidase inhibitory activity was determined by measuring the release of […] at 405 nm of the microplate reader. The negative control was prepared by adding PBS buffer instead of the sample in the same way as the test. The blank was prepared by adding PBS buffer instead of pNPG using the same method.

Some results are limits rather than exact numbers.

Turning to `CC(=O)N[C@@H]1C(=O)SC[C@@H]1C` [Compound 1, 2S-acetamide-3R-methyl-thiolactone], the IC50 was over 400 µM. Further, the “α-glucosidase inhibitory activity in words” value (at a concentration of 400 μM) is reported as “weak inhibitory activity”.

For `CC(=O)N[C@H]1C(=O)SC[C@@H]1C` [Compound 2, 2R-acetamide-3R-methyl-thiolactone], the IC50 was found to be 148 µM. Consider `CC(=O)[C@H]1CC[C@H]2C3=C(CC[C@]12C)[C@@]1(C)CC[C@H](O)C[C@@H]1CC3` [Compound 3, Δ^8,9-3β-hydroxy-5α-17-acetyl steroid], for which the IC50 is 280 µM. Still for that read-out and setting: to `CC(=O)C1CCC2C3=C(CCC12C)C1(C)CCC(O)CC1CC3` (stereo not drawn) [Compound 4, Δ^8,9-3α-hydroxy-5α-17-acetyl steroid] belongs 86 µM.
